Like-named read-outs stand apart in the source and are kept apart here.

In EP4778920A1, “INDAZOLONE COMPOUND, PREPARATION METHOD THEREFOR, PHARMACEUTICAL COMPOSITION, AND USE” (Shanghai Institute of Materia Medica, Chinese Academy of …, priority 2023, dated 2025) one finds inhibition, IC50 and hydrolysis half-life data, which are given here for 11 compounds.

The target in one series is CRBN/DDB1 (Homo sapiens, UniProt Q96SW2). Nature of the series: CRBN/DDB1 binding TR-FRET assay. As to conditions: read-out: AVE_Inhibition% (1 µM). The method, then:
• 1. 0.1 µL of the reference solution was added to a 384-well assay plate. The final detection concentration was 100 µM, followed by 3-fold serial dilution for 10 points. • 2. 2.5 µL of CRBN/DDB1 was added to the 384-well plate and centrifuged at 1000 rpm for 1 minute. • 3. 2.5 µL of Thalidomide-BODIPY was added to the plate, centrifuged at 1000 rpm for 1 minute, and incubated at 25 °C for 15 minutes. • 4. 5 µL of His-Tb was added to the plate, centrifuged at 1000 rpm for 1 minute, and incubated at 25 °C for 60 minutes. • 5. The TR-FRET signal was measured using a BMG plate reader with a fluorescence ratio of 520/490 nm.
Table 4. Inhibition Rate of Compounds on CRBN/DDB1 Binding

For the next series, the system named is MV-4-11 cells. As to the kind of experiment: MV-4-11 cell proliferation inhibition (MTS assay). The series is classed as cell-based. Particulars: Homo sapiens, MV4-11, 168 h, 7 days incubation, MTS, read-out: MV-411 (IC50, Inhibitory Activity of Compounds on MV-4-11 Cell Proliferation). The procedure:
MV-4-11 cells were cultured in IMDM medium supplemented with 10% fetal bovine serum and collected. The cell concentration was diluted according to a 7-day incubation period, and 180 µL of cell suspension was added to each well of a 96-well plate, resulting in 2,000 cells per well. […] The test compounds were prepared from a 10 mM stock solution and serially diluted in a five-fold gradient, and 20 µL of the diluted compound solution was added to each compound-treated well (final DMSO concentration 0.2%). The cells were incubated in a 37 °C, 5% CO2 incubator for 7 days. After incubation, the reaction solution was prepared according to the MTS assay kit instructions (Promega, G5430), and 20 µL was added to each well. The plate was further incubated at 37 °C with 5% CO2 for 3-4 hours. The absorbance at 490 nm was measured using a microplate reader, and the absorbance at 690 nm was used as the background value. The final raw data were calculated as OD490 - OD690. […] The IC50 values for cell proliferation inhibition were determined using GraphPad Prism 5.0. Each experiment was repeated three times, and three parallel replicates were performed in each experiment to calculate the mean value and standard deviation.
Table 3. Inhibitory Activity of Compounds on MV-4-11 Cell Proliferation

A further series relates to Mino cells. Nature of the series: Mino cell proliferation inhibition (MTS assay). The series is classed as cell-based. As to conditions: Homo sapiens, 72 h, 3 days incubation, read-out: Mino (IC50, Inhibitory Activity of Compounds on Mino Cell Proliferation). The method, then:
The cell concentration was diluted according to a 3-day incubation period, and 90 µL of cell suspension was added to each well of a 96-well plate, resulting in 8,000 cells per well. […] The test compounds were prepared from a 10 mM stock solution and serially diluted in a five-fold gradient. Similarly, 10 µL of the diluted compound solution was added to each compound-treated well (final DMSO concentration 0.2%).
The cells were incubated in a 37 °C, 5% CO2 incubator for 3 days. After incubation, the reaction solution was prepared according to the MTS assay kit instructions (Promega, G5430), and 20 µL was added to each well. The plate was further incubated at 37 °C with 5% CO2 for 3-4 hours. The absorbance at 490 nm was measured using a microplate reader, and the absorbance at 690 nm was used as the background value. The final raw data were calculated as OD490 - OD690. […] The IC50 values for cell proliferation inhibition were determined using GraphPad Prism 5.0. Each experiment was repeated three times, and three parallel replicates were performed in each experiment to calculate the mean value and standard deviation.
Table 2. Inhibitory Activity of Compounds on Mino Cell Proliferation

For another series, the system named is MM.1S cells. Nature of the series: MM.1S cell proliferation inhibition (MTS assay). The series is classed as cell-based. As to conditions: Homo sapiens, MM1.S, 168 h, 7 days incubation, read-out: MM1.S (IC50, Inhibitory Activity of Compounds on MM.1S Cell Proliferation). The procedure: The cell concentration was diluted according to a 7-day incubation period, and 180 µL of cell suspension was added to each well of a 96-well plate, with 20,000 cells per well. […] The test compounds were prepared from a 10 mM stock solution and serially diluted in a 5-fold gradient, and 20 µL of the diluted solution was added to each compound-treated well (final DMSO concentration also 0.2%). The cells were incubated in a 37 °C, 5% CO2 incubator for 7 days. After incubation, the reaction solution was prepared according to the MTS assay kit instructions (Promega, G5430), and 20 µL was added to each well. The plate was incubated at 37 °C with 5% CO2 for 3-4 hours. The absorbance at 490 nm was measured using a microplate reader, and the absorbance at 690 nm was used as the background value. […] The IC50 values for cell proliferation inhibition were determined using GraphPad Prism 5.0. Each experiment was repeated three times, and three parallel replicates were performed in each experiment to calculate the mean value and standard deviation.
Inhibitory Activity of Compounds on MM.1S Cell Proliferation

The conditions of series [1]: cited from earlier work.

CRBN/DDB1, sequence (Q96SW2 whole entry, species assumed): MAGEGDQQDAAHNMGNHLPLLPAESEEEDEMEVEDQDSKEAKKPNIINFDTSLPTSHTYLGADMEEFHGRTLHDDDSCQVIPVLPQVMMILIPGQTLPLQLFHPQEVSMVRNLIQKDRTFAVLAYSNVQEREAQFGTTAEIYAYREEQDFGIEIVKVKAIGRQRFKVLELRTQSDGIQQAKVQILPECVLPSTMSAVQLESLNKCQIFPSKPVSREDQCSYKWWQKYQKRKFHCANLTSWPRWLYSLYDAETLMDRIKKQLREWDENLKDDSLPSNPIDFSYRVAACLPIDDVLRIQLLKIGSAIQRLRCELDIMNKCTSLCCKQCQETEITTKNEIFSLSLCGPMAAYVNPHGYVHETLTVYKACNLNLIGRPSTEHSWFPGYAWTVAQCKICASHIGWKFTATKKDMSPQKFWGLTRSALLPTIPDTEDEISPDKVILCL
CRBN/DDB1, sequence (Q16531 whole entry partner, species assumed): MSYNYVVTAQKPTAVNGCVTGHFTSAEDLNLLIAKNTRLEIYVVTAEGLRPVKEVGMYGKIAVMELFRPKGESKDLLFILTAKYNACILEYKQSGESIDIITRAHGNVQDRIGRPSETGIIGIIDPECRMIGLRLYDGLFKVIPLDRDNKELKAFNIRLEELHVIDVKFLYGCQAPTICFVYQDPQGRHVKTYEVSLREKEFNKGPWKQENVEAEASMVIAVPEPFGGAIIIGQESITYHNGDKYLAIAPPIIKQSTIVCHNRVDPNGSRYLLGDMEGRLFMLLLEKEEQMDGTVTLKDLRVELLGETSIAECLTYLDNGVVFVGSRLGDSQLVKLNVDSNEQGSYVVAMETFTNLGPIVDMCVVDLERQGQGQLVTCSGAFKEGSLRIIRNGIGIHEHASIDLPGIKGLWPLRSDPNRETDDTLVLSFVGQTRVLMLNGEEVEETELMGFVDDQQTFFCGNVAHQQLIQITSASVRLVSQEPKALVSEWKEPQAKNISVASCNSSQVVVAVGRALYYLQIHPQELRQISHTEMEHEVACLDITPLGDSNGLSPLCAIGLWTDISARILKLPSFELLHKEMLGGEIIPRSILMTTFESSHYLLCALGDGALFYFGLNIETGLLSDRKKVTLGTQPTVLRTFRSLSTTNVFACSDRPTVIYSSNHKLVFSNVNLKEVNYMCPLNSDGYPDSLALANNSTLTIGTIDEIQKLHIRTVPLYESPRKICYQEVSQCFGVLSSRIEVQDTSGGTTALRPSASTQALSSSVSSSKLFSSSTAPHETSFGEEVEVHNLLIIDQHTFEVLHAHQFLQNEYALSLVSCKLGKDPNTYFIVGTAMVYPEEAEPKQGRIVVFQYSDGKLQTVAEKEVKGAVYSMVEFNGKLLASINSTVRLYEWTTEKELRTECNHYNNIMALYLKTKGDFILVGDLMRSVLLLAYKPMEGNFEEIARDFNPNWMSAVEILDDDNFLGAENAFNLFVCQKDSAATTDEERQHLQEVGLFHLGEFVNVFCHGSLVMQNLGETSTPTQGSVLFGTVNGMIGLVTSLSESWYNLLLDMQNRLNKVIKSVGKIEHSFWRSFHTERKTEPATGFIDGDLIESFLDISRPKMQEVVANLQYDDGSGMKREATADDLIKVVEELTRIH

For `CCn1c2c(OCc3ccc(CN4CCN(c5ccc(C#N)cc5F)CC4)cc3)cccc2c(=O)n1C1CCC(=O)NC1=O` (stereo not shown) [Compound D25], the inhibition at 1 µM at CRBN/DDB1 was under 50%. In addition, the IC50 in the series on MV-4-11 cells is 1000 to 20000 nM; with Mino cells it was over 10000 nM; in the series with MM.1S cells, 1000 to 10000 nM.
In the case of `O=C1CCC(n2[nH]c3c(OCc4ccc(CN5CCN(c6cccc(Cl)c6)CC5)cc4)cccc3c2=O)C(=O)N1` (stereo not shown) [Compound D8, 3-(7-((4-((4-(3-chlorophenyl)piperazin-1-yl)methyl)benzyl)oxy)-3-oxo-1,3-dihydro-2H-indazol-2-yl)piperidine-2,6-dione], the inhibition at 1 µM on CRBN/DDB1 was over 90%. Moreover, the IC50 in the series with MV-4-11 cells, in the series with Mino cells and with MM.1S cells was under 200 nM each time.
Consider `N#Cc1ccc(N2CCN(Cc3ccc(COc4cc(F)cc5c(=O)n(C6CCC(=O)NC6=O)[nH]c45)cc3)CC2)c(F)c1` (stereo not shown) [Compound D14, 4-(4-(4-(((2-(2,6-dioxopiperidin-3-yl)-5-fluoro-3-oxo-2,3-dihydro-1H-indazol-7-yl)oxy)methyl)benzyl)piperazin-1-yl)-3-fluorobenzonitrile], for which the inhibition at 1 µM on CRBN/DDB1 is over 90%. Besides, the IC50 in the series with MV-4-11 cells, with Mino cells and in the series with MM.1S cells was under 200 nM in each case.
For the compound `O=C1CC[C@H](n2[nH]c3cc(CNC(=O)C(F)(F)c4ccc(Cl)cc4)ccc3c2=O)C(=O)N1` [Compound D44, (S)-2-(4-chlorophenyl)-N-((2-(2,6-dioxopiperidin-3-yl)-3-oxo-2,3-dihydro-1H-indazol-6-yl)methyl)-2,2-difluoroacetamide], the inhibition at 1 µM on CRBN/DDB1 was under 50%. Further, the IC50 in the series on MV-4-11 cells was 1000 to 20000 nM; with Mino cells it was over 10000 nM; in the series with MM.1S cells, over 10000 nM.
On to `CC(C)(C)NC(=O)c1ccc2c(=O)n(C3CCC(=O)NC3=O)[nH]c2c1` (stereo not shown) [Compound D40, N-(tert-butyl)-2-(2,6-dioxopiperidin-3-yl)-3-oxo-2,3-dihydro-1H-indazole-6-carboxamide], for which, on CRBN/DDB1, the inhibition at 1 µM was under 50%. The IC50 in the series on MV-4-11 cells is over 20000 nM; in the series with Mino cells, over 10000 nM; in the series on MM.1S cells, over 10000 nM.
Turning to `O=C1CCC(n2[nH]c3c(OCc4ccc(CN5CCN(c6ccc(Cl)cc6)CC5)cc4)cc(F)cc3c2=O)C(=O)N1` (stereo not shown) [Compound D18, 3-(7-((4-((4-(4-chlorophenyl)piperazin-1-yl)methyl)benzyl)oxy)-5-fluoro-3-oxo-1,3-dihydro-2H-indazol-2-yl)piperidine-2,6-dione], at CRBN/DDB1, the inhibition at 1 µM is over 90%. In addition, the IC50 with MV-4-11 cells, in the series with Mino cells and with MM.1S cells was under 200 nM throughout.
With `O=C1CCC(n2[nH]c3c(OCc4ccc(CN5CCN(c6ccc(F)cc6)CC5)cc4)cccc3c2=O)C(=O)N1` (stereo not shown) [Compound D10, 3-(7-((4-((4-(4-fluorophenyl)piperazin-1-yl)methyl)benzyl)oxy)-3-oxo-1,3-dihydro-2H-indazol-2-yl)piperidine-2,6-dione], the inhibition at 1 µM at CRBN/DDB1 is over 90%. Also, the IC50 in the series on MV-4-11 cells, in the series with Mino cells and with MM.1S cells was under 200 nM throughout.
Regarding `O=C1CCC(n2[nH]c3c(OCc4ccc(CN5CCN(c6ccc(F)cc6F)CC5)cc4)cc(F)cc3c2=O)C(=O)N1` (stereo not shown) [Compound D15, 3-(7-((4-((4-(2,4-difluorophenyl)piperazin-1-yl)methyl)benzyl)oxy)-5-fluoro-3-oxo-1,3-dihydro-2H-indazol-2-yl)piperidine-2,6-dione], the inhibition at 1 µM at CRBN/DDB1 was 50 to 90%. Further, the IC50 with MV-4-11 cells, with Mino cells and in the series with MM.1S cells was under 200 nM in each case.
`CCn1c2c(OCc3ccc(CN4CCOCC4)cc3)cccc2c(=O)n1C1CCC(=O)NC1=O` (stereo not shown) [Compound D23, 3-(1-Ethyl-7-((4-(morpholinomethyl)benzyl)oxy)-3-oxo-1,3-dihydro-2H-indazol-2-yl)piperidine-2,6-dione]: at CRBN/DDB1, the inhibition at 1 µM is under 50%. Further, the IC50 in the series on MV-4-11 cells was over 20000 nM; with Mino cells, over 10000 nM; in the series on MM.1S cells it was over 10000 nM.
`O=C1CCC(N2C(=O)c3ccccc3C2=O)C(=O)N1` (stereo not shown) [thalidomide]: the hydrolysis half-life entry is “about 11 hours” in series [1] (pH 7), about 5 h in series [1] (pH 7.4) and about 1.25 h in series [1] (pH 8).
Take `CCc1ccc([C@H](C)NC(=O)c2ccc3c(=O)n(C4CCC(=O)NC4=O)[nH]c3c2)cc1` (stereo partly drawn) [Compound D47, 2-(2,6-Dioxopiperidin-3-yl)-N-((S)-1-(4-ethylphenyl)ethyl)-3-oxo-2,3-dihydro-1H-indazol-6-carboxamide]: the inhibition at 1 µM at CRBN/DDB1 was under 50%. The IC50 with MV-4-11 cells was 200 to 1000 nM; in the series with Mino cells it was under 200 nM; with MM.1S cells it was 200 to 1000 nM.
